US7825253B2, “2-aminoquinoline derivatives” (Hoffmann-La Roche Inc., priority 2006, dated 2010)

What was measured:
[1] = target: T1, recombinant human 5-HT5A receptor (Homo sapiens, UniProt P47898); experiment: [3H]LSD radioligand binding assay; settings: [3H]LSD approx. 1 nM; membranes from HEK-EBNA cells transiently expressing 5-HT5A; Ki from IC50 by Cheng-Prussoff
T1 construct: expressed in transfected cells; host or cells: Human Embryonic Kidney-EBNA (HEK-EBNA) cells, transient cDNA expression; membranes
Outline: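 Membranes from HEK-EBNA cells transiently expressing the receptor, with ~1 nM [3H]LSD in 50 mM Tris pH 7.4 (1 mM EGTA, 10 mM MgCl2, 10 μM pargyline), SPA read-out, 120 min at room temperature. Methiothepin 2 μM defined non-specific binding; 10-point IC50 converted to Ki by Cheng-Prusoff.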

T1 sequence (P47898 whole entry): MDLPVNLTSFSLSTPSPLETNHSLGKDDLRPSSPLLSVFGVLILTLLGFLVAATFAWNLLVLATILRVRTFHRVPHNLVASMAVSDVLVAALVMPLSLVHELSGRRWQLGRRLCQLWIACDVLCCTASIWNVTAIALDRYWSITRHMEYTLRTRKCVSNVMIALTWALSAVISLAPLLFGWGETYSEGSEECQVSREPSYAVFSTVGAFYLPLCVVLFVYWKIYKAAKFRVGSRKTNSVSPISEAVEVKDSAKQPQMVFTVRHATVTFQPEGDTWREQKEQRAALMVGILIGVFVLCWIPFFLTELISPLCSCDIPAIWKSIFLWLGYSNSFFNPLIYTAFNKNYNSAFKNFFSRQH

| melting point | Ki [1] | Compound |
| --- | --- | --- |
| 173 °C | – | Cc1ccc(CNc2ccc3c(CNC(=O)c4ccc(F)cc4)cccc3n2)o1 [Example 126, 4-Fluoro-N-{2-[(5-methyl-furan-2-ylmethyl)-amino]-quinolin-5-ylmethyl}-benzamide] |
| 155 °C | 35.6 nM | COc1ccccc1CNc1ccc2c(C(=N)c3ccc(F)cc3)cccc2n1 [Example 136, {5-[(4-Fluoro-phenyl)-imino-methyl]-quinolin-2-yl}-(2-methoxy-benzyl)-amine] |
| 162.5 °C | 86 nM | COc1ccccc1CNc1ccc2c(CNC(=O)c3ccc(F)cc3)cccc2n1 [Example 146] |
| 121.5 °C | – | COc1ccccc1CNc1ccc2c(-c3noc(C)n3)cccc2n1 [Example 150, (2-Methoxy-benzyl)-[5-(5-methyl-[1,2,4]oxadiazol-3-yl)-quinolin-2-yl]-amine] |
| – | 16.6 nM | c1cc(Nc2ccc3c(NCc4cccc5[nH]ccc45)cccc3n2)cc(C2CC2)c1 [Example 164, N2-(3-Cyclopropyl-phenyl)-N5-(1H-indol-4-ylmethyl)-quinoline-2,5-diamine] |
| – | 6.43 nM | c1cc(Nc2ccc3c(NCc4ccc5[nH]cnc5c4)cccc3n2)cc(C2CC2)c1 [Example 165, N5-(1H-Benzoimidazol-5-ylmethyl)-N2-(3-cyclopropyl-phenyl)-quinoline-2,5-diamine] |
| – | 34.2 nM | Cc1nc[nH]c1CNc1cccc2nc(Nc3cccc(C4CC4)c3)ccc12 [Example 166, N2-(3-Cyclopropyl-phenyl)-N5-(5-methyl-3H-imidazol-4-ylmethyl)-quinoline-2,5-diamine] |
| – | 7.19 nM | COc1ccccc1CNc1ccc2c(C(=NO)c3ccc(F)cc3)cccc2n1 [Example 167, (4-Fluoro-phenyl)-[2-(2-methoxy-benzylamino)-quinolin-5-yl]-methanone oxime] |
